Tests used:
[1] = target: T1, E. coli glutamine synthetase (rE. coli GS) (Escherichia coli, UniProt P0A9C5); experiment: feedback inhibition enzyme assay at […]; type: biochemical
T1 construct: gene glnA; recombinant with 6xHis tag
T1 sequence (P0A9C5 2-469): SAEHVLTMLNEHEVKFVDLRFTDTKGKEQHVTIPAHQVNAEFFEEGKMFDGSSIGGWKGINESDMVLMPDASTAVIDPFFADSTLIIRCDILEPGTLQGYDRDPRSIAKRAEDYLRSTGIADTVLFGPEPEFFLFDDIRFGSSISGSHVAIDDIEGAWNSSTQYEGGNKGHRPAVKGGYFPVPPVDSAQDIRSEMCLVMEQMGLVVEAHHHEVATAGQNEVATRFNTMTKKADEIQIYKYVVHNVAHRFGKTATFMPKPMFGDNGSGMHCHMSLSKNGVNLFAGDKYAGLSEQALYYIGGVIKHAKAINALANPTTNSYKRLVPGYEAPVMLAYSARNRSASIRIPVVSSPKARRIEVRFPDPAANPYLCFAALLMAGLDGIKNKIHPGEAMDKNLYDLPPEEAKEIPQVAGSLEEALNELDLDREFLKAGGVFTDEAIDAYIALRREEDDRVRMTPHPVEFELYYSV

[2] = target: T2, Plasmodium falciparum glutamine synthetase lacking first peptide insert (ΔI1rPfGS) (Plasmodium falciparum, UniProt C0H551, DEL174-196); type: biochemical
T2 construct: gene PF3D7_0922600; recombinant, 6xHis tag, first peptide insert (amino acids 174–196) deleted

[3] = target: T3, Plasmodium berghei glutamine synthetase (rPbGS) (Plasmodium berghei, UniProt A0A509ANX1); experiment: GS enzyme assay (Pi release/HPLC) with pre-incubation with ATP and MgCl2; kinetic Ki; type: biochemical
T3 construct: gene PBANKA_0823500; recombinant with N-terminal 6xHis tag, expressed in E. coli
T3 sequence (A0A509ANX1 1-553): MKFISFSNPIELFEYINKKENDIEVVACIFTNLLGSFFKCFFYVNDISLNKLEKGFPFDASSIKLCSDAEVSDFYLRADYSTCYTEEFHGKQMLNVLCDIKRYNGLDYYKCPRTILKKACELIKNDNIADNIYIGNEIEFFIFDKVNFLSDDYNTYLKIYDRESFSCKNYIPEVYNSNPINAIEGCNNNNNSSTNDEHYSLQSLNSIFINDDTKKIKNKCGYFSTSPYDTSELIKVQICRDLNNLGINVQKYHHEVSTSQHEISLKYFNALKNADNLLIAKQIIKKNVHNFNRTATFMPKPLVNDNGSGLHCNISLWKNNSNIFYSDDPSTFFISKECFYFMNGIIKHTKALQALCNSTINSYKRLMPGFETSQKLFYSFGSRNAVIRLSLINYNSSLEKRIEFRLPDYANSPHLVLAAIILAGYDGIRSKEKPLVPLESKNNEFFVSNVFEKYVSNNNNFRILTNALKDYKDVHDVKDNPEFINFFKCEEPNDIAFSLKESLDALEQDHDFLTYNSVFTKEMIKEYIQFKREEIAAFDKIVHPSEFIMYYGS

[4] = target: T4, Plasmodium falciparum glutamine synthetase (rPfGS) (Plasmodium falciparum, UniProt C0H551); experiment: biochemical
T4 construct: gene PF3D7_0922600
T4 sequence (C0H551 1-543): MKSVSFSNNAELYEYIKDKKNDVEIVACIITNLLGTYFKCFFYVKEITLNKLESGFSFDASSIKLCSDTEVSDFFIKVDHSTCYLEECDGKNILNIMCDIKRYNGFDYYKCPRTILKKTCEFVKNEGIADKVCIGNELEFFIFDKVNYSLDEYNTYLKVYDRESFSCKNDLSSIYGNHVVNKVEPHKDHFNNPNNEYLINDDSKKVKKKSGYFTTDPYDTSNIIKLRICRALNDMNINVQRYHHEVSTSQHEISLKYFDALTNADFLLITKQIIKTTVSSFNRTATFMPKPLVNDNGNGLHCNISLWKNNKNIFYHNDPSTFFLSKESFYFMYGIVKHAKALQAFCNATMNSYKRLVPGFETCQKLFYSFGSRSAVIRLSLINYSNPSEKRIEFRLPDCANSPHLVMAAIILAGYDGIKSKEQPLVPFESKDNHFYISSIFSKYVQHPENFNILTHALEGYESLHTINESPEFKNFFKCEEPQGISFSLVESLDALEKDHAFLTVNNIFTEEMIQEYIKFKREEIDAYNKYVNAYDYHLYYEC

Compound	% [1]	GS enzyme assay, percent activity vs control [2]	Ki [3] [µM]	Ki [4] [µM]
Nc1ncnc2c1ncn2[C@@H]1O[C@H](COP(=O)(O)O)[C@@H](O)[C@H]1O [AMP, adenosine monophosphate]	30–40% inhibition at 5 mM			
CS(=N)(=O)CC[C@H](N)C(=O)O (stereo partly drawn) [MSO, L-Methionine sulfoximine]		ΔI1rPfGS behaved like rPfGS in terms of specific activity (Fig. 3b), inhibition by MSO and PPT (Fig. 3c)	5.44 ± 1.07	
CP(=O)(O)CC[C@H](N)C(=O)O [PPT, Phosphinothricin]		ΔI1rPfGS behaved like rPfGS in terms of specific activity (Fig. 3b), inhibition by MSO and PPT (Fig. 3c)	8.07 ± 3.31	2.31 ± 1.1
C[C@H](N)C(=O)O [alanine]	30–40% inhibition at 5 mM			
